Assay results from PubChem BioAssay AID1919013 (Molecular Pharmacology Branch, DTP, NCI, 2023).

Test system: LG0703-F498-PDC complex spheroid growth
Assay: Anticancer human tumor LG0703-F498-PDC patient-derived lung adenocarcinoma cell line growth inhibition [AhR]
Conditions: for IC50: curve of first compound; for viability, T/C: stronger effect = lower value; active = viability on the fitted dose curve at most 10% of control; inactive = the rest
Summary of the method: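 Agents were dosed in half-log steps down from roughly clinical Cmax, or from 10 microM where Cmax was unknown, alone and with AhR antagonists. Read-out: percent test/control growth of tumor spheroids containing HUVEC and MSC stromal cells.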

[1] = second compound 0.1 µM, first compound 0.00316 µM
[2] = second compound 0.1 µM, first compound 0.01 µM
[3] = second compound 0.1 µM, first compound 0.0316 µM
[4] = second compound 0.1 µM, first compound 0.1 µM
[5] = second compound 0.316 µM, first compound 0.00316 µM
[6] = second compound 0.316 µM, first compound 0.01 µM
[7] = second compound 0.316 µM, first compound 0.0316 µM
[8] = second compound 0.316 µM, first compound 0.1 µM
[9] = second compound 1 µM, first compound 0.00316 µM
[10] = second compound 1 µM, first compound 0.01 µM
[11] = second compound 1 µM, first compound 0.0316 µM
[12] = second compound 1 µM, first compound 0.1 µM
[13] = second compound 3.16 µM, first compound 0.00316 µM
[14] = second compound 3.16 µM, first compound 0.01 µM
[15] = second compound 3.16 µM, first compound 0.0316 µM
[16] = second compound 3.16 µM, first compound 0.1 µM
[17] = second compound 10 µM, first compound 0.00316 µM
[18] = second compound 10 µM, first compound 0.01 µM
[19] = second compound 10 µM, first compound 0.0316 µM
[20] = second compound 10 µM, first compound 0.1 µM
[21] = second compound 0.1 µM, first compound 0.316 µM
[22] = second compound 0.1 µM, first compound 1 µM
[23] = second compound 0.1 µM, first compound 3.16 µM
[24] = second compound 0.1 µM, first compound 10 µM
[25] = second compound 0.316 µM, first compound 0.316 µM
[26] = second compound 0.316 µM, first compound 1 µM
[27] = second compound 0.316 µM, first compound 3.16 µM
[28] = second compound 0.316 µM, first compound 10 µM
[29] = second compound 1 µM, first compound 0.316 µM
[30] = second compound 1 µM, first compound 1 µM
[31] = second compound 1 µM, first compound 3.16 µM
[32] = second compound 1 µM, first compound 10 µM
[33] = second compound 3.16 µM, first compound 0.316 µM
[34] = second compound 3.16 µM, first compound 1 µM
[35] = second compound 3.16 µM, first compound 3.16 µM
[36] = second compound 3.16 µM, first compound 10 µM
[37] = second compound 10 µM, first compound 0.316 µM
[38] = second compound 10 µM, first compound 1 µM
[39] = second compound 10 µM, first compound 3.16 µM
[40] = second compound 10 µM, first compound 10 µM
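Also: luminescence taken as a proxy for viable cell amount.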
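For viability, T/C in this document: percent of DMSO vehicle control where 100% means growth equal to vehicle.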

CC[C@@]1(O)C(=O)OCc2c1cc1n(c2=O)Cc2cc3c(CN(C)C)c(O)ccc3nc2-1 + Cc1cncc(-c2nc(NCCc3c[nH]c4ccccc34)c3ncn(C(C)C)c3n2)c1
> 100 nM: IC50 (second compound 0.1 µM) | IC50 (second compound 0.316 µM) | IC50 (second compound 1 µM)
inactive: viability, T/C (second compound 0.1 µM, first compound 0.000316 µM) 96.8% | viability, T/C (second compound 0.1 µM, first compound 0.001 µM) 99.7% | viability, T/C [1] 100% | viability, T/C [2] 89.2% | viability, T/C [3] 78.6% | viability, T/C [4] 63.7% | viability, T/C (second compound 0.316 µM, first compound 0.000316 µM) 93% | viability, T/C (second compound 0.316 µM, first compound 0.001 µM) 105% | viability, T/C [5] 102% | viability, T/C [6] 87.5% | viability, T/C [7] 63.9% | viability, T/C [8] 55.4% | viability, T/C (second compound 1 µM, first compound 0.000316 µM) 97.5% | viability, T/C (second compound 1 µM, first compound 0.001 µM) 101% | viability, T/C [9] 101% | viability, T/C [10] 90.6% | viability, T/C [11] 73% | viability, T/C [12] 50.2% | viability, T/C (second compound 3.16 µM, first compound 0.000316 µM) 56.9% | viability, T/C (second compound 3.16 µM, first compound 0.001 µM) 67.9% | viability, T/C [13] 56.6% | viability, T/C [14] 57.6% | viability, T/C [15] 48% | viability, T/C [16] 38.3%
active: viability, T/C (second compound 10 µM, first compound 0.000316 µM) 1.34% | viability, T/C (second compound 10 µM, first compound 0.001 µM) 2.04% | viability, T/C [17] 1.13% | viability, T/C [18] 1.73% | viability, T/C [19] 1.21% | viability, T/C [20] 2.28%
29.8 nM: IC50 (second compound 3.16 µM)
< 0.316 nM: IC50 (second compound 10 µM)

COc1cc(C2c3cc4c(cc3C(OC3OC5COC(C)OC5C(O)C3O)C3COC(=O)C23)OCO4)cc(OC)c1O (stereo not given) + Cc1cncc(-c2nc(NCCc3c[nH]c4ccccc34)c3ncn(C(C)C)c3n2)c1
< 31.6 nM: IC50 (second compound 10 µM)
active: viability, T/C [19] 1.19% | viability, T/C [20] 1.35% | viability, T/C [37] 1.7% | viability, T/C [38] 1.47% | viability, T/C [39] 1.3% | viability, T/C [40] 2.49%
> 10000 nM: IC50 (second compound 0.1 µM) | IC50 (second compound 0.316 µM) | IC50 (second compound 1 µM)
5510 nM: IC50 (second compound 3.16 µM)
inactive: viability, T/C [3] 105% | viability, T/C [4] 96.7% | viability, T/C [21] 102% | viability, T/C [22] 93.8% | viability, T/C [23] 84.6% | viability, T/C [24] 63.4% | viability, T/C [7] 112% | viability, T/C [8] 110% | viability, T/C [25] 96.8% | viability, T/C [26] 85.4% | viability, T/C [27] 77.9% | viability, T/C [28] 71.5% | viability, T/C [11] 89.7% | viability, T/C [12] 126% | viability, T/C [29] 115% | viability, T/C [30] 93.3% | viability, T/C [31] 72.2% | viability, T/C [32] 64.5% | viability, T/C [15] 60.3% | viability, T/C [16] 64.1% | viability, T/C [33] 62.8% | viability, T/C [34] 54.3% | viability, T/C [35] 51.6% | viability, T/C [36] 47.9%

COc1cccc2c1C(=O)c1c(O)c3c(c(O)c1C2=O)CC(O)(C(=O)CO)CC3OC1CC(N)C(O)C(C)O1 (stereo not given) + Cc1cncc(-c2nc(NCCc3c[nH]c4ccccc34)c3ncn(C(C)C)c3n2)c1
394 nM: IC50 (second compound 1 µM)
454 nM: IC50 (second compound 0.316 µM)
571 nM: IC50 (second compound 0.1 µM)
inactive: viability, T/C [3] 76.6% | viability, T/C [4] 74.6% | viability, T/C [21] 64% | viability, T/C [22] 36.8% | viability, T/C [7] 79% | viability, T/C [8] 77.8% | viability, T/C [25] 58.3% | viability, T/C [26] 29.8% | viability, T/C [11] 84.2% | viability, T/C [12] 79.9% | viability, T/C [29] 53.7% | viability, T/C [30] 27.1% | viability, T/C [15] 41.6% | viability, T/C [16] 44.3% | viability, T/C [33] 39.5% | viability, T/C [34] 15.8%
< 31.6 nM: IC50 (second compound 3.16 µM) | IC50 (second compound 10 µM)
active: viability, T/C [23] 5.61% | viability, T/C [24] 0.77% | viability, T/C [27] 3.48% | viability, T/C [28] 0.76% | viability, T/C [31] 1.11% | viability, T/C [32] 0.75% | viability, T/C [35] 0.78% | viability, T/C [36] 0.47% | viability, T/C [19] 2.11% | viability, T/C [20] 2.97% | viability, T/C [37] 4.27% | viability, T/C [38] 0.39% | viability, T/C [39] 0.31% | viability, T/C [40] 0.58%

Nc1ncn(C2CC(O)C(CO)O2)c(=O)n1 (stereo not given) + Cc1cncc(-c2nc(NCCc3c[nH]c4ccccc34)c3ncn(C(C)C)c3n2)c1
active: viability, T/C [17] 1.37% | viability, T/C [18] 1.38% | viability, T/C [19] 1.23% | viability, T/C [20] 1.12% | viability, T/C [37] 1.02% | viability, T/C [38] 1.63%
inactive: viability, T/C [1] 85.7% | viability, T/C [2] 98% | viability, T/C [3] 94.8% | viability, T/C [4] 84.4% | viability, T/C [21] 79.9% | viability, T/C [22] 86.4% | viability, T/C [5] 109% | viability, T/C [6] 102% | viability, T/C [7] 88% | viability, T/C [8] 86.8% | viability, T/C [25] 81.9% | viability, T/C [26] 79.9% | viability, T/C [9] 106% | viability, T/C [10] 116% | viability, T/C [11] 98.7% | viability, T/C [12] 89.3% | viability, T/C [29] 89.3% | viability, T/C [30] 87.2% | viability, T/C [13] 56% | viability, T/C [14] 59.8% | viability, T/C [15] 58.5% | viability, T/C [16] 64.3% | viability, T/C [33] 55.1% | viability, T/C [34] 60%
< 3.16 nM: IC50 (second compound 10 µM)
> 1000 nM: IC50 (second compound 0.1 µM) | IC50 (second compound 0.316 µM) | IC50 (second compound 1 µM) | IC50 (second compound 3.16 µM)
